Legend:
Rat Liver Microsome = experiment: Activity to Inhibit Hyperoxidation of Lipid of Rat Liver Microsome (thiobarbituric acid method); format: biochemical
Protocol: Activity to Inhibit Hyperoxidation of Lipid of Rat Liver Microsome
A rat liver microsome was prepared according to a conventional method, and suspended in 1.15% KCl to obtain a microsome suspension.
The above microsome suspension in an amount equivalent to 2 mg of a protein was added to a tris-HCl buffer (pH 7.4) to which NADPH, ADP and FeCl3 had been added such that the final concentrations were 0.2 mM of NADPH, 1 mM of ADP and 10 μM of FeCl3.
A dimethylformamide (DMF) solution of each of test compounds in an amount of 10 μl or DMF in an amount of 10 μl was added such that the total amount of each of the mixtures was 1 ml, and then, the mixtures were kept at 37° C. for 20 minutes. In addition, the test compounds were added in such amounts that their final concentrations became 10^-5 M.
Thereafter, according to a thiobarbituric acid method, the above mixtures were measured for an amount of peroxide lipid formed. The inhibiting activities of the test compounds were compared with that of the group containing the solvent (DMF) alone, and the results were expressed as an inhibition ratio (%).

[1] = system: Ventricular Arrhythmia During Coronary Occlusion-Reperfusion in Rat Heart; experiment: Activity to Inhibit Ventricular Arrhythmia During Coronary Occlusion-Reperfusion in Rat Heart; format: in vivo, male Wistar rats; conditions: for Total time of arrhythmia occurrence (second) (mean + S.E.): 10 minutes (600 seconds) observation
Protocol: Activity to Inhibit Ventricular Arrhythmia During Coronary Occlusion-Reperfusion in Rat Heart
Five to ten male Wistar rats (weight 230 to 460 g per rat) were used as one group for each of test compounds. Each of the rats was anesthetized with sodium pentobarbital, and electrocardiograms thereof were recorded with standard lead II.
The rats were subjected to thoracotomy under artificial respiration, and left coronary artery ramus anterior descendenses were ligated for 5 minutes and then perfused.
In addition, each of test compounds was suspended in a physiological saline containing 1% olive oil and 1% Tween 80, and the resultant suspensions were administered into femoral veins 2 minutes before the coronary occlusion, or orally administered 1 hour before the coronary occlusion, such that the amounts of said compounds were as predetermined.
When a left coronary artery ramus anterior descendence is occluded for 5 minutes and then reperfused, ventricular arrhythmia typified by ventricular tachycardia (VT) and ventricular fibrillation (VF) occurs.

[2] = system: Ischemic Brain Model Mouse; experiment: Action on Survival Rate of Ischemic Brain Model Mouse; format: in vivo, ICR male mice; conditions: oral, 100 mg/kg
Protocol: Action on Survival Rate of Ischemic Brain Model Mouse
Thirteen to fifty-six ICR male mice were used as one group for each of test compounds. Each of the mice was anesthetized by intraperitoneal administration of sodium pentobarbital, the bilateral carotid arteries were exposed, a thread was put around the arteries, and the skin was sutured with one end of the thread outside the body.
Three days after the suture of the skin, the bilateral carotid arteries were ligated for 3 minutes, and then reperfused to obtain ischemic brain model mice. And, a survival rate in each group 24 hours after the ligation-reperfusion of bilateral carotid arteries was determined.
In addition, each of the test compounds was suspended in a physiological saline containing 1% olive oil and 1% Tween 80, and the suspension was orally administered one hour before the ligation of the bilateral carotid arteries such that the amount of each test compound was 100 mg/kg.

CCl4 Liver Dysfunction = experiment: Action on CCl4 Liver Dysfunction; format: in vivo, ICR male mice; conditions: oral
Protocol: Action on CCl4 Liver Dysfunction
Fourteen and seventeen ICR male mice were used as one group for each test. Each of the mice was hypodermically administered in its dorsal portion with 10 ml/kg of a solution of 10% CCl4 in olive oil to develop acute hepatitis, and the serum obtained by centrifugation of a blood sample taken from each mouse 48 hours after the administration was measured on GOT (glutamic-oxaloacetic transaminase) activity and GPT (glutamic-pyruvictransaminase) activity with an autoanalyzer (AU550, supplied by Olympus K.K.).
In addition, the test compound was suspended in physiological saline containing 1% olive oil and 1% Tween 80, and the resultant suspension was orally administered three times in total, immediately after the CCl4 administration and in the morning and evening on the day thereafter, such that the dose of each test compound was 100 mg/kg/one time administration.

[3] = system: Ischemic Acute Renal Insufficiency; experiment: Action on Ischemic Acute Renal Insufficiency; format: in vivo, male Wistar rats; conditions: intravenous, 72 hours after reperfusion
Protocol: Action on Ischemic Acute Renal Insufficiency
Four male Wistar rats (weight: about 200 g per rat) were used as one group for each test. Each of the rats was anesthetized with sodium pentobarbital, the right kidney was extirpated, and immediately thereafter, 100 IU/kg of heparin was intravenously administered to its tail. Eight minutes after the administration, the left renal artery was ligated with a suture, and 60 minutes after the ligation, and the renal artery was reperfused by unligating the suture to develop ischemic acute renal insufficiency in each of the rats.
Immediately before the administration of sodium pentobarbital and 72 hours after the reperfusion, blood samples were taken from the tail artery of each rat, and the serums obtained by centrifugation of the sample bloods were respectively measured for a blood urea nitrogen (BUN) amount and a creatinine amount, indices for renal insufficiency, with an autoanalyzer (AU550, supplied by Olympus K.K.).
In addition, the test compound was suspended in a physiological saline containing 1% olive oil and 1% Tween 80, and the resultant suspension was intravenously administered to the tail of each rat 10 minutes before the administration of sodium pentobarbital or 10 minutes before the reperfusion such that the dose of the test compound was 10 mg/kg or 30 mg/kg.

Stability Test = format: physicochemical; conditions: room temperature, after 24 hours, tris-HCl buffer pH 9.0; read-out: residual content
Protocol: A tris-HCI buffer having pH of 9.0 was added to each of alcohol solutions of the compounds (Ia2), (Ia3), (IA2) and 2-O-dodecyl ascorbic acid, which was a position isomer of the compound (IA2), in such a manner that the amount of the buffer was 100 times as large as that of each alcohol solution.
The test compounds in the solutions which were allowed to stand at room temperature were quantitatively determined with time to measure their stability.

Mouse = experiment: Acute Toxicity Test on Mouse; format: in vivo, Male 3-ICR mice; conditions: intravenous
Protocol: Acute Toxicity Test on Mouse
Male 3-ICR mice (10 weeks of age) were used. The compounds (Ia2), (Ia3) and (IA2) were intravenously administered to the mice in such a manner that the doses of each of the compounds were 30 mg/kg and 100 mg/kg. For one week after the administration, symptoms were observed.

[4] = 10^-5 M, pH 7.4, 37° C., 20 minutes, versus solvent (DMF) alone; 10 µM
[5] = 10^-5 M, pH 7.4, 37° C., 20 minutes, versus solvent (DMF) alone, 10 µM
[6] = 100 mg/kg/one time, three times, serum 48 hours after CCl4

**Q.** With `CCCCCCC(=O)COC1=C(O)C(=O)O[C@@H]1[C@@H](O)CO` [(a), reference compound] as the compound, how does the “Lipid hyperoxidation inhibition ratio (%)” value (Rat Liver Microsome; [4]) read?
**A.** 27%

**Q.** With `CCCCCCCCCCCCCCCCC(=O)COC1=C(O)C(=O)O[C@@H]1[C@@H](O)CO` [(b), reference compound] as the compound, how does the “Lipid hyperoxidation inhibition ratio (%)” value (Rat Liver Microsome; [4]) read?
**A.** 43%

**Q.** With `CCCCCCCCOC1=C(O)C(=O)O[C@@H]1[C@@H](O)CO` [(c), reference compound] as the compound, how does the “Lipid hyperoxidation inhibition ratio (%)” value (Rat Liver Microsome; [4]) read?
**A.** 40%

**Q.** For `CCCCCCCCCCCCCCCCCCOC1=C(O)C(=O)O[C@@H]1[C@@H](O)CO` [(d), reference compound], which “Lipid hyperoxidation inhibition ratio (%)” value (Rat Liver Microsome; [4]) is on record?
**A.** 45%

**Q.** Which “Lipid hyperoxidation inhibition ratio (%)” value (Rat Liver Microsome; [5]) does the source give for `CCCCCCCCCCOC(=O)COC1=C(O)C(=O)O[C@@H]1[C@@H](O)CO` [Compound (IA5)] here?
**A.** 72%

**Q.** For `CCCCCCCCCCCCCCCCCCOC(=O)COC1=C(O)C(=O)O[C@@H]1[C@@H](O)CO` [Compound (IA6)], which “Lipid hyperoxidation inhibition ratio (%)” value (Rat Liver Microsome; [5]) is on record?
**A.** 73%

**Q.** For `CCCCCCCCCCCCC(=O)COC1=C(O)C(=O)O[C@@H]1[C@@H](O)CO` [Compound (Ia3), 3-O-dodecylcarbonylmethyl ascorbic acid], which “Lipid hyperoxidation inhibition ratio (%)” value (Rat Liver Microsome; [5]) is on record?
**A.** 85%

**Q.** What about the “Lipid hyperoxidation inhibition ratio (%)” value (Rat Liver Microsome; 10^-5 M, pH 7.4, 37° C., 20 minutes, versus solvent (DMF) alone, 10 µM, listed as Compound (IA3)) of the same compound?
**A.** 81%

**Q.** And the “Total time of arrhythmia occurrence (second) (mean + S.E.)” value (from here on “Total time of arrhythmia occurrence”) ([1]; i.v., 0.3 mg/kg, 2 minutes before coronary occlusion)?
**A.** 471.0 ± 73.6 s

**Q.** What about the “Total time of arrhythmia occurrence” value ([1]; i.v., 1 mg/kg, 2 minutes before coronary occlusion) of the same compound?
**A.** 216.1 ± 59.6 s

**Q.** And the “Total time of arrhythmia occurrence” value ([1]; i.v., 3 mg/kg, 2 minutes before coronary occlusion)?
**A.** 273.5 ± 93.8 s

**Q.** What about the “Total time of arrhythmia occurrence” value ([1]; i.v., 10 mg/kg, 2 minutes before coronary occlusion) of the same compound?
**A.** 203.8 ± 91.0 s

**Q.** And the “Total time of arrhythmia occurrence” value ([1]; i.v., 30 mg/kg, 2 minutes before coronary occlusion)?
**A.** 150.5 ± 79.8 s

**Q.** What about the “inhibition of occurrence of arrhythmia” value ([1]; intravenously, not less than 1 mg/kg) of the same compound?
**A.** same significant inhibition

**Q.** And the “inhibition of occurrence of arrhythmia” value ([1]; orally, not less than 10 mg/kg)?
**A.** same significant inhibition

**Q.** What about the “Total time of arrhythmia occurrence” value ([1]; p.o., 10 mg/kg, 1 hour before coronary occlusion) of the same compound?
**A.** 378.2 ± 61.4 s

**Q.** What about the “Total time of arrhythmia occurrence” value ([1]; p.o., 30 mg/kg, 1 hour before coronary occlusion) of the same compound?
**A.** 313.3 ± 81.7 s

**Q.** What about the “Total time of arrhythmia occurrence” value ([1]; p.o., 100 mg/kg, 1 hour before coronary occlusion) of the same compound?
**A.** 85.4 ± 28.9 s

**Q.** What about the “Total time of arrhythmia occurrence” value ([1]; p.o., 300 mg/kg, 1 hour before coronary occlusion) of the same compound?
**A.** 123.6 ± 43.7 s

**Q.** What about the “Survival rate (%)” value ([2]; one hour before ligation, 24 hours after ligation-reperfusion of bilateral carotid arteries) of the same compound?
**A.** 80.0%

**Q.** And the “survival rate versus vehicle group” value ([2]; 24 hours after ligation-reperfusion)?
**A.** significantly higher

**Q.** What about the “GOT activity value” (CCl4 Liver Dysfunction; 100 mg/kg) of the same compound?
**A.** significantly reduced

**Q.** And the “GPT activity value” (CCl4 Liver Dysfunction; 100 mg/kg)?
**A.** significantly reduced

**Q.** What about the “GOT activity (mean ± S.E)” value (CCl4 Liver Dysfunction; [6]) of the same compound?
**A.** 445.0 ± 69.0 Unit/1

**Q.** And the “GPT activity (mean ± S.E)” value (CCl4 Liver Dysfunction; [6])?
**A.** 1,406.4 ± 185.2 Unit/1

**Q.** What about the “BUN amount (mean ± S.E.)” value ([3]; 10 mg/kg) of the same compound?
**A.** 33.8 ± 6.1 mg/dL

**Q.** What about the “Creatinine amount (mean ± S.E.)” value ([3]; 10 mg/kg) of the same compound?
**A.** 0.93 ± 0.05 mg/dL

**Q.** And the “BUN amount (mean ± S.E.)” value ([3]; 30 mg/kg)?
**A.** 34.1 ± 8.9 mg/dL

**Q.** What about the “Creatinine amount (mean ± S.E.)” value ([3]; 30 mg/kg) of the same compound?
**A.** 1.04 ± 0.12 mg/dL

**Q.** And the “BUN amount versus vehicle group” value ([3]; 10 or 30 mg/kg)?
**A.** significantly smaller

**Q.** And the “creatinine amount versus vehicle group” value ([3]; 10 or 30 mg/kg)?
**A.** significantly smaller

**Q.** And the remaining at 24 h (Stability Test)?
**A.** ≥ 80%

**Q.** And the “death during observation for one week” value (Mouse; 30 mg/kg)?
**A.** no death was found

**Q.** And the “death during observation for one week” value (Mouse; 100 mg/kg)?
**A.** no death was found

**Q.** For `CCCCCCCCCCCCCCC(=O)COC1=C(O)C(=O)OC1C(O)CO` (centres unmarked) [Compound (Ia4)], which “Lipid hyperoxidation inhibition ratio (%)” value (Rat Liver Microsome; [5]) is on record?
**A.** 65%

Reference: patent publication US5194445A, “Ascorbic acid derivative” (Nippon Hypox Laboratories Incorporated, priority 1989, dated 1993)
